Source: US20240252488A1 (KOREA RESEARCH INSTITUTE OF CHEMICAL TECHNOLOGY, priority 2020, published 2024)

Key:
FADD−/− Jurkat cells = experiment: Necroptosis inhibition assay, TNF-α-induced necroptosis (CellTiter-Glo 2.0); type: cell-based, human; conditions: TNF-α 15 ng/mL; for Necroptosis inhibition assay (Rescue %) 1 μM: compound 1 μM; for Necroptosis inhibition assay (Rescue %) 10 μM: compound 10 μM
Method in brief: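 Necroptosis was triggered by TNF-α at 15 ng/mL final following 30 minutes of compound exposure (0.1, 1 or 10 μM final). Incubation ran 20 to 24 hours at 37° C under 5% CO2; cell ATP was then quantified by luminescence.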

MLKL [1] = target: T1, MLKL (Homo sapiens, UniProt Q8NB16); experiment: Measurement of binding affinity with MLKL receptor (competitive binding assay, Kd); design: made in house; host or cells: HEK 293 cell line (T7 phage in E. coli BL21-derived host is also described)
T1 sequence (Q8NB16 1-471): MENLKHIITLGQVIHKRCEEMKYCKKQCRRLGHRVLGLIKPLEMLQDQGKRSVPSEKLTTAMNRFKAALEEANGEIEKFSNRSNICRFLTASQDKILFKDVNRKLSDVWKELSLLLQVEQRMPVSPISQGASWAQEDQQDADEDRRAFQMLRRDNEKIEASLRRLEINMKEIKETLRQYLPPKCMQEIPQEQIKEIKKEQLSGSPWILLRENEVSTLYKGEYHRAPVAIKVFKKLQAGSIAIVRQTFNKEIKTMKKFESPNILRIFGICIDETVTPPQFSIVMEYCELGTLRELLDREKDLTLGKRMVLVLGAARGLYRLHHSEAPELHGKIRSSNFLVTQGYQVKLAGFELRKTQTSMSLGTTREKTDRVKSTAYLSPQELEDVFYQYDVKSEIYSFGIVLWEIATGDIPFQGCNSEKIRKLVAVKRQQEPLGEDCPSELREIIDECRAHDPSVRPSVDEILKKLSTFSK
Method in brief: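 Kd comes from a bead-based competition format: compound-dependent loss of DNA-tagged, HEK 293-expressed MLKL capture, measured as eluate kinase by qPCR. Final DMSO is 0.9%.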

MLKL [2] = target: T1, MLKL; experiment: MLKL degradation assay in HepG2 cell line (western blot); type: cell-based; design: endogenous in cells; host or cells: HepG2 or HaCaT; conditions: cell line not given; for Degradation assay (Degradation %) 1 μM: compound 1 μM; for Degradation assay (Degradation %) 10 μM: compound 10 μM
Method in brief: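 After treating HepG2 with test compounds (final 1 μM or 10 μM) for 20-24 h, we lysed cells, equalized protein by BCA and probed MLKL by overnight primary antibody at 4 °C followed by chemiluminescent detection.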

Kd (MLKL [1]) [nM] | Degradation assay (Degradation %) 1 μM (MLKL [2]) [%] | Degradation assay (Degradation %) 10 μM (MLKL [2]) [%] | SMILES | Necroptosis inhibition assay (Rescue %) 1 μM (FADD−/− Jurkat cells; FADD−/− Jurkat cells) [%] | Necroptosis inhibition assay (Rescue %) 10 μM (FADD−/− Jurkat cells; FADD−/− Jurkat cells) [%] | Necroptosis inhibition assay (Rescue %) 1 μM (FADD−/− Jurkat cells) [%] | Necroptosis inhibition assay (Rescue %) 10 μM (FADD−/− Jurkat cells) [%]
0.6 | 20.29 | 27.38 | COc1ccc(C(=O)N2CCC(CN3CCC(n4cc(-c5cnc(N)c(C(=O)O[C@@H](C(=O)Nc6ccc(F)cc6)c6ccccc6)n5)cn4)CC3)CC2)cc1N1CCC(=O)NC1=O [TDH-445, (R)-2-((4-fluorophenyl)amino)-2-oxo-1-phenylethyl 3-amino-6-(1-(1-((1-(3-(2,4-dioxotetrahydropyrimidin-1(2H)-yl)-4-methoxybenzoyl)piperidin-4-yl)methyl)piperidin-4-yl)-1H-pyrazol-4-yl)pyrazine-2-carboxylate] | 12.07 | 19.83 | – | –
3.7 | 86.13 | 88.73 | Nc1ncc(-c2cnn(C3CCN(C[C@H]4CC[C@H](CNC(=O)C5CCN(c6ccc7c(c6)C(=O)N(C6CCC(=O)NC6=O)C7=O)CC5)CC4)CC3)c2)nc1C(=O)O[C@@H](C(=O)Nc1ccc(F)cc1)c1ccccc1 (stereo partly drawn) [TDH-350, (R)-2-((4-fluorophenyl)amino)-2-oxo-1-phenylethyl 3-amino-6-(1-(1-(((1r,4r)-4-((1-(2-(2,6-dioxopiperidin-3-yl)-1,3-dioxoisoindolin-5-yl)piperidine-4-carboxamido)methyl)cyclohexyl)methyl)piperidin-4-yl)-1H-pyrazol-4-yl)pyrazine-2-carboxylate] | – | – | 39.64 | 34.84
7.5 | 73.39 | 73.33 | Nc1ncc(-c2cnn(C3CCN(C(=O)CC4CCN(C(=O)CNc5ccc6c(c5)C(=O)N(C5CCC(=O)NC5=O)C6=O)CC4)CC3)c2)nc1C(=O)O[C@@H](C(=O)Nc1ccc(F)cc1)c1ccccc1 (stereo partly drawn) [TDH-340, (R)-2-((4-fluorophenyl)amino)-2-oxo-1-phenylethyl 3-amino-6-(1-(1-(2-(1-((2-(2,6-dioxopiperidin-3-yl)-1,3-dioxoisoindolin-5-yl)glycyl)piperidin-4-yl)acetyl)piperidin-4-yl)-1H-pyrazol-4-yl)pyrazine-2-carboxylate] | – | – | 42.94 | 43.81
3.2 | 70.59 | 64.30 | Nc1ncc(-c2cnn(C3CCN(C(=O)CC4CCN(C(=O)CNc5ccc6nnn(C7CCC(=O)NC7=O)c(=O)c6c5)CC4)CC3)c2)nc1C(=O)O[C@@H](C(=O)Nc1ccc(F)cc1)c1ccccc1 (stereo partly drawn) [TDH-405, (R)-2-((4-fluorophenyl)amino)-2-oxo-1-phenylethyl 3-amino-6-(1-(1-(2-(1-((3-(2,6-dioxopiperidin-3-yl)-4-oxo-3,4-dihydrobenzo[d][1,2,3]triazin-6-yl)glycyl)piperidin-4-yl)acetyl)piperidin-4-yl)-1H-pyrazol-4-yl)pyrazine-2-carboxylate] | 36.97 | 37.28 | – | –
0.95 | 93.47 | 96.40 | COc1ccc(C(=O)N2CCC(CCN3CCC(CN4CCC(n5cc(-c6cnc(N)c(C(=O)O[C@@H](C(=O)Nc7ccc(F)cc7)c7ccccc7)n6)cn5)CC4)CC3)CC2)cc1N1CCC(=O)NC1=O [TDH-501, (R)-2-((4-fluorophenyl)amino)-2-oxo-1-phenylethyl 3-amino-6-(1-(1-((1-(2-(1-(3-(2,4-dioxotetrahydropyrimidin-1(2H)-yl)-4-methoxybenzoyl)piperidin-4-yl)ethyl)piperidin-4-yl)methyl)piperidin-4-yl)-1H-pyrazol-4-yl)pyrazine-2-carboxylate] | 92.23 | 71.17 | – | –
2.2 | 66.33 | 43.03 | Nc1ncc(-c2cnn(C3CCN(CCC4CCN(C(=O)C5CCN(c6cccc7nnn(C8CCC(=O)NC8=O)c(=O)c67)CC5)CC4)CC3)c2)nc1C(=O)OC(C(=O)Nc1ccc(F)cc1)c1ccccc1 (centres unmarked) [TDH-289, 2-((4-fluorophenyl)amino)-2-oxo-1-phenylethyl 3-amino-6-(1-(1-(2-(1-(1-(3-(2,6-dioxopiperidin-3-yl)-4-oxo-3,4-dihydrobenzo[d][1,2,3]triazin-5-yl)piperidine-4-carbonyl)piperidin-4-yl)ethyl)piperidin-4-yl)-1H-pyrazol-4-yl)pyrazine-2-carboxylate] | – | – | 67.46 | 61.24
2.2 | 49.38 | 52.62 | Nc1ncc(-c2cnn(C3CCN(CCOCCOCCNC(=O)CNc4ccc5nnn(C6CCC(=O)NC6=O)c(=O)c5c4)CC3)c2)nc1C(=O)O[C@@H](C(=O)Nc1ccc(F)cc1)c1ccccc1 (stereo partly drawn) [TDH-174, (R)-2-((4-fluorophenyl)amino)-2-oxo-1-phenylethyl 3-amino-6-(1-(1-(2-(2-(2-(2-((3-(2,6-dioxopiperidin-3-yl)-4-oxo-3,4-dihydrobenzo[d][1,2,3]triazin-6-yl)amino)acetamido)ethoxy)ethoxy)ethyl)piperidin-4-yl)-1H-pyrazol-4-yl)pyrazine-2-carboxylate] | – | – | 16.47 | 42.59
0.4 | 70.89 | 81.41 | Nc1ncc(-c2cnn(C3CCN(CC4CCN(CC5CCN(C(=O)c6cccc(C(=O)NC7CCC(=O)NC7=O)c6)CC5)CC4)CC3)c2)nc1C(=O)O[C@@H](C(=O)Nc1ccc(F)cc1)c1ccccc1 (stereo partly drawn) [TDH-546, (R)-2-((4-fluorophenyl)amino)-2-oxo-1-phenylethyl 3-amino-6-(1-(1-((1-((1-(3-((2,6-dioxopiperidin-3-yl)carbamoyl)benzoyl)piperidin-4-yl)methyl)piperidin-4-yl)methyl)piperidin-4-yl)-1H-pyrazol-4-yl)pyrazine-2-carboxylate] | 31.08 | 28.77 | – | –
1.1 | 82.75 | 86.37 | Nc1ncc(-c2cnn(C3CCN(CC4CCN(CCC5CCN(C(=O)Cc6cccc(NC7=CC(=O)N(C8CCC(=O)NC8=O)C7=O)c6)CC5)CC4)CC3)c2)nc1C(=O)O[C@@H](C(=O)Nc1ccc(F)cc1)c1ccccc1 (stereo partly drawn) [TDH-507, (R)-2-((4-fluorophenyl)amino)-2-oxo-1-phenylethyl 3-amino-6-(1-(1-((1-(2-(1-(2-(3-((1-(2,6-dioxopiperidin-3-yl)-2,5-dioxo-2,5-dihydro-1H-pyrrol-3-yl)amino)phenyl)acetyl)piperidin-4-yl)ethyl)piperidin-4-yl)methyl)piperidin-4-yl)-1H-pyrazol-4-yl)pyrazine-2-carboxylate] | 26.03 | 14.19 | – | –
0.4 | 87.16 | 90.95 | COc1ccc(C(=O)N2CCC(C(=O)N3CCC4(CC3)CC(N3CCC(CN5CCC(n6cc(-c7cnc(N)c(C(=O)O[C@@H](C(=O)Nc8ccc(F)cc8)c8ccccc8)n7)cn6)CC5)CC3)C4)CC2)cc1N1CCC(=O)NC1=O [TDH-508, (R)-2-((4-fluorophenyl)amino)-2-oxo-1-phenylethyl 3-amino-6-(1-(1-((1-(7-(1-(3-(2,4-dioxotetrahydropyrimidin-1(2H)-yl)-4-methoxybenzoyl)piperidine-4-carbonyl)-7-azaspiro[3.5]nonan-2-yl)piperidin-4-yl)methyl)piperidin-4-yl)-1H-pyrazol-4-yl)pyrazine-2-carboxylate] | 48.15 | 39.79 | – | –
